Measured values taken from ChEMBL document CHEMBL1201862, “PubChem BioAssay data set” (2004).
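Assay format: 96-well plates, 48-hour exposure. GI50 marks 50% less growth.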 The source made the active and inactive calls. Rule as the data show it: active = GI50 up to about 1.1 µM and inactive = higher.

Key:
Test in all cases: NCI anticancer screen, dose series, 48 h
A549 = system: A549
Malme-3M = system: Malme-3M
CAKI-1 = system: CAKI-1
SNB-19 = system: SNB-19
HOP-92 = system: HOP-92
HT-29 = system: HT-29
NCI-H522 = system: NCI-H522
SW-620 = system: SW-620
HL-60 = system: HL-60
SF-295 = system: SF-295
786-0 = system: 786-0
RXF 393 = system: RXF 393
SK-MEL-2 = system: SK-MEL-2
UACC-62 = system: UACC-62
NCI-H226 = system: NCI-H226
ACHN = system: ACHN

Measured: GI50

C[C@]12CCC(=O)CC1CCCC2=O (stereo partly specified)
inactive: A549 > 100 µM | Malme-3M > 100 µM | CAKI-1 > 100 µM | SNB-19 > 100 µM | HOP-92 > 100 µM | HT-29 > 100 µM | NCI-H522 > 100 µM | SW-620 > 100 µM | HL-60 > 100 µM | SF-295 > 100 µM | 786-0 > 100 µM | RXF 393 > 100 µM | SK-MEL-2 > 100 µM | UACC-62 > 100 µM

O=c1cccccc1NCCCCCCNc1cccccc1=O
inactive: A549 > 100 µM | Malme-3M > 100 µM | NCI-H226 > 100 µM | CAKI-1 > 100 µM | SNB-19 > 100 µM | HT-29 > 100 µM | NCI-H522 > 100 µM | SW-620 > 100 µM | ACHN > 100 µM | HL-60 > 100 µM | SF-295 > 100 µM | 786-0 > 100 µM | SK-MEL-2 > 100 µM | UACC-62 > 100 µM

COC(=O)[C@H](Cc1ccccc1)NC(=O)/C(=C/C(C)C)NC(=O)[C@H](CCSC)NC=O
inactive: A549 > 100 µM | NCI-H226 > 100 µM | CAKI-1 > 100 µM | SNB-19 > 100 µM | HOP-92 > 100 µM | HT-29 > 100 µM | NCI-H522 > 100 µM | SW-620 > 100 µM | ACHN > 100 µM | HL-60 > 100 µM | SF-295 > 100 µM | 786-0 > 100 µM | RXF 393 > 100 µM | SK-MEL-2 > 100 µM | UACC-62 > 100 µM

O=C(CC(=O)c1ccccc1)CC(O)(c1ccccc1)c1ccccc1
inactive: Malme-3M 11 µM | NCI-H226 3.87 µM | CAKI-1 2.9 µM | SNB-19 3.92 µM | HOP-92 5.21 µM | HT-29 10.4 µM | NCI-H522 3.12 µM | SW-620 4.02 µM | ACHN 6.27 µM | HL-60 2.01 µM | SF-295 4.42 µM | SK-MEL-2 9.95 µM | UACC-62 3.21 µM

CCCCCC(=O)c1ccc2[nH]c3c(C)cc([N+](=O)[O-])c(C)c3c2c1
inactive: A549 49.4 µM | Malme-3M > 100 µM | NCI-H226 > 100 µM | CAKI-1 > 100 µM | SNB-19 > 100 µM | HT-29 75 µM | NCI-H522 > 100 µM | SW-620 80.2 µM | ACHN > 100 µM | HL-60 98.2 µM | SF-295 94.6 µM | 786-0 36.1 µM | SK-MEL-2 > 100 µM

O=c1cc[nH]c2c1ccc1ncccc12
inactive: A549 > 100 µM | Malme-3M > 100 µM | NCI-H226 > 100 µM | SNB-19 > 100 µM | HT-29 > 100 µM | NCI-H522 > 100 µM | SW-620 > 100 µM | ACHN > 100 µM | HL-60 > 100 µM | 786-0 > 100 µM | RXF 393 > 100 µM | SK-MEL-2 > 100 µM | UACC-62 > 100 µM

COc1cc(Cc2cc(OC)c(OC)c(OC)c2)ccc1O
inactive: A549 8.59 µM | Malme-3M 2.41 µM | NCI-H226 93.1 µM | CAKI-1 62.1 µM | SNB-19 23.9 µM | HOP-92 19.3 µM | HT-29 34.8 µM | NCI-H522 9.31 µM | SW-620 3.56 µM | ACHN 40.9 µM | HL-60 2.27 µM | SF-295 4.57 µM | 786-0 29.7 µM | SK-MEL-2 3.11 µM | UACC-62 9.95 µM

CCCCCCCSCC1OC(n2cnc3c(N)ncnc32)C(O)C1O (stereo unspecified)
inactive: A549 31.8 µM | Malme-3M 49.3 µM | NCI-H226 > 100 µM | CAKI-1 5.08 µM | SNB-19 30.5 µM | HOP-92 6.43 µM | HT-29 1.42 µM | SW-620 13.3 µM | ACHN 25.9 µM | HL-60 3.01 µM | SF-295 18.7 µM | RXF 393 > 100 µM | SK-MEL-2 20.3 µM

CCCC(=O)OCC1OC(n2ccc(N)nc2=O)C(OC(=O)CCC)C1OC(=O)CCC (stereo unspecified)
inactive: A549 8.05 µM | Malme-3M > 21.2 µM | NCI-H226 88.5 µM | CAKI-1 5.25 µM | SNB-19 24.8 µM | HOP-92 > 45.1 µM | HT-29 99.3 µM | NCI-H522 10.6 µM | SW-620 > 100 µM | HL-60 1.67 µM | SF-295 > 73.5 µM | RXF 393 > 58.7 µM | SK-MEL-2 > 85.9 µM | UACC-62 26.4 µM

C/C(=N\NC(=S)Nc1ccc([N+](=O)[O-])cc1S(=O)(=O)O)c1ccccn1
inactive: A549 37.7 µM | Malme-3M 95.9 µM | NCI-H226 37.4 µM | CAKI-1 52.8 µM | HOP-92 41.9 µM | HT-29 34.6 µM | SW-620 26.5 µM | ACHN 62.4 µM | HL-60 31.7 µM | SF-295 > 100 µM | 786-0 59.8 µM | RXF 393 38.8 µM | SK-MEL-2 29.4 µM | UACC-62 73.8 µM

CC(C)Cc1cccc(C(C)C)c1NC(=O)CCC(=O)N/N=C1\C(=N/NC(=O)CCC(=O)Nc2c(C(C)C)cccc2C(C)C)C(c2ccc3c(c2)OCO3)Oc2ccccc21 (stereo unspecified)
inactive: A549 65.3 µM | NCI-H226 > 100 µM | CAKI-1 53.2 µM | SNB-19 91 µM | HOP-92 > 100 µM | HT-29 43.8 µM | NCI-H522 19.5 µM | SW-620 46 µM | ACHN 83 µM | HL-60 34.2 µM | SF-295 48 µM | RXF 393 34.9 µM | SK-MEL-2 > 100 µM | UACC-62 78.3 µM

O=C(Cc1ccccc1)NN1C(=O)C(Cl)C1c1ccc(Cl)cc1 (stereo unspecified)
inactive: A549 > 100 µM | Malme-3M > 100 µM | NCI-H226 > 100 µM | CAKI-1 > 100 µM | SNB-19 69.8 µM | HT-29 > 100 µM | NCI-H522 > 100 µM | SW-620 > 100 µM | ACHN > 100 µM | HL-60 92.7 µM | SF-295 > 100 µM | 786-0 > 100 µM | RXF 393 > 100 µM | SK-MEL-2 > 100 µM | UACC-62 > 100 µM

COc1ccc(C=O)c(NC(=O)C(C)C)c1
inactive: A549 27.2 µM | Malme-3M 27.4 µM | NCI-H226 > 10 µM | SNB-19 72.1 µM | HOP-92 18.2 µM | HT-29 66.7 µM | NCI-H522 15.9 µM | SW-620 > 10 µM | ACHN 29.8 µM | SF-295 32.7 µM | 786-0 74.6 µM | RXF 393 12.3 µM | SK-MEL-2 37.6 µM | UACC-62 30.3 µM

CCOC(=O)/C=C/n1c2ccccc2c(=O)c2cc(OC)ccc21
inactive: A549 > 100 µM | Malme-3M > 100 µM | NCI-H226 > 100 µM | CAKI-1 > 100 µM | SNB-19 61.2 µM | HOP-92 57.9 µM | HT-29 38.5 µM | NCI-H522 54.2 µM | ACHN > 100 µM | HL-60 > 100 µM | SF-295 > 100 µM | 786-0 > 100 µM | RXF 393 > 100 µM | SK-MEL-2 > 100 µM | UACC-62 > 100 µM

O=c1cc2ccccc2nn1Cc1ccccc1Cl
inactive: A549 > 100 µM | Malme-3M > 100 µM | NCI-H226 > 100 µM | CAKI-1 > 100 µM | SNB-19 > 100 µM | HOP-92 71.9 µM | HT-29 > 100 µM | SW-620 > 100 µM | ACHN > 100 µM | SF-295 > 100 µM | 786-0 > 100 µM | SK-MEL-2 > 100 µM | UACC-62 89.7 µM

CN1C/C(=C\c2ccc(C(=O)O)cc2)C(=O)/C(=C/c2ccc(C(=O)O)cc2)C1
inactive: A549 > 100 µM | Malme-3M > 100 µM | NCI-H226 > 100 µM | CAKI-1 > 100 µM | HOP-92 > 100 µM | HT-29 > 100 µM | SW-620 > 100 µM | ACHN > 100 µM | HL-60 > 100 µM | SF-295 > 100 µM | 786-0 > 100 µM | RXF 393 > 100 µM | SK-MEL-2 > 100 µM | UACC-62 > 100 µM

S=C(N/N=C/c1ccccc1)NC12CC3CC(CC(C3)C1)C2
inactive: A549 27.8 µM | NCI-H226 97.7 µM | CAKI-1 49.3 µM | SNB-19 > 100 µM | HOP-92 6.18 µM | HT-29 5.31 µM | NCI-H522 29.5 µM | SW-620 30.5 µM | ACHN 51.8 µM | HL-60 31.2 µM | SF-295 41 µM | 786-0 56.1 µM | RXF 393 23.7 µM | SK-MEL-2 40 µM | UACC-62 27.5 µM

CC12CCC(C(=O)N3CC=CCC3)(OC1=O)C2(C)C (stereo unspecified)
inactive: A549 > 100 µM | Malme-3M > 100 µM | NCI-H226 > 100 µM | CAKI-1 > 100 µM | SNB-19 > 100 µM | HOP-92 > 100 µM | HT-29 > 100 µM | NCI-H522 > 100 µM | SW-620 > 100 µM | HL-60 > 100 µM | SF-295 > 100 µM | RXF 393 > 100 µM | SK-MEL-2 > 100 µM | UACC-62 > 100 µM

CC(=O)OCCOCNC(=S)N/N=C(\C)c1cnc2ccccc2n1
inactive: A549 26.6 µM | Malme-3M 40.6 µM | NCI-H226 36.4 µM | SNB-19 99.3 µM | HT-29 29.6 µM | NCI-H522 21.9 µM | SW-620 28.2 µM | ACHN 11.5 µM | HL-60 15.9 µM | SF-295 57.9 µM | 786-0 39.7 µM | RXF 393 33 µM | SK-MEL-2 33.3 µM | UACC-62 14.2 µM
